# In US11911346B2, “Orally administrated therapeutic for treating mild cognitive impairment (MCI) and improving human cognitive function” (BrainCare LLC, priority 2021, dated 2024):
# Test system: cognitive function of participants with Subjective Cognitive Decline
# Experiment: Cognitive Failures Questionnaire (CFQ), 8-week randomized study of one or two BCP capsules daily
# Type: in vivo, human
# Settings: two capsules daily (180 mg BCP); for CFQ score: Do you bump into people? / CFQ score: Do you confuse left and right when giving people directions? / CFQ score: Do you daydream when you ought to be listening to something? / CFQ score: Do you fail to hear people speaking to you when you are doing something? / CFQ score: Do you fail to listen to people's names when you are meeting them for the first time? / CFQ score: Do you fail to notice signposts on the road? / CFQ score: Do you fail to see what you want in a supermarket (although it's there)? / CFQ score: Do you find that you drop things? / CFQ score: Do you find that you forget appointments? / CFQ score: Do you find you accidentally misplace things like placing the fruit in the cupboard and the bowl in the refrigerator? / CFQ score: Do you find you can't quite remember something although it's “on the tip of your tongue”? / CFQ score: Do you find you can't think of anything to say? / CFQ score: Do you find you forget people's names? / CFQ score: Do you find you forget what you came to the store to buy? / CFQ score: Do you find you forget whether you've turned off a light or locked the door? / CFQ score: Do you find you forget which way to turn on a road you know well but rarely use? / CFQ score: Do you find you forget why you went from one place of the house to the other? / CFQ score: Do you find yourself suddenly wondering if you used a word correctly? / CFQ score: Do you forget where you put something like a newspaper or a book? / CFQ score: Do you have trouble making up your mind? / CFQ score: Do you lose track of paying bills? / CFQ score: Do you lose your temper and regret it? / CFQ score: Do you read something and find you haven't been thinking about it and must read it again? / CFQ score: Do you say something and realize afterwards that it might be taken as an insult? / CFQ score: Do you start doing one thing at home and get distracted and do something else (unintentionally)? / Distractibility summed sub-score of CFQ / False triggering summed sub-score of CFQ / Forgetfulness summed sub-score of CFQ / Total CFQ summed sub-score: lower is better
# [1] = week 4, listed as beta-caryophyllene
# [2] = week 8, listed as beta-caryophyllene
structure (smiles),measurement,setting,value
"C=C1CC/C=C(\C)CC[C@@H]2[C@@H]1CC2(C)C [BCP, beta-caryophyllene]",CFQ % better vs. baseline: Do you find yourself suddenly wondering if you used a word correctly?,week 4,29% better
same,CFQ % better vs. baseline: Do you forget where you put something like a newspaper or a book?,week 4,19%
same,CFQ % better vs. baseline: Do you have trouble making up your mind?,week 4,21% better
same,CFQ % better vs. baseline: Do you lose track of paying bills?,week 4,10% better
same,CFQ % better vs. baseline: Do you lose your temper and regret it?,week 4,26% better
same,CFQ % better vs. baseline: Do you read something and find you haven't been thinking about it and must read it again?,week 4,39%
same,CFQ % better vs. baseline: Do you start doing one thing at home and get distracted and do something else (unintentionally)?,week 4,30%
same,CFQ change vs. baseline: Do you say something and realize afterwards that it might be taken as an insult?,week 4,No change
same,"Distractibility summed sub-score of CFQ, % better vs. baseline",week 4,20%
same,"False triggering summed sub-score of CFQ, % better vs. baseline",week 4,33%
same,"Forgetfulness summed sub-score of CFQ, % better vs. baseline",week 4,27%
same,"Total CFQ summed sub-score, % better vs. baseline",week 4,25%
same,CFQ % better vs. baseline: Do you daydream when you ought to be listening to something?,[1],28% better
same,CFQ % better vs. baseline: Do you find you can't quite remember something although it's “on the tip of your tongue”?,[1],20% better
same,CFQ % better vs. baseline: Do you find you forget whether you've turned off a light or locked the door?,[1],45% better
same,CFQ % better vs. baseline: Do you find you forget why you went from one place of the house to the other?,[1],39% better
same,CFQ % better vs. baseline: Do you forget where you put something like a newspaper or a book?,[1],19% better
same,CFQ % better vs. baseline: Do you read something and find you haven't been thinking about it and must read it again?,[1],39% better
same,CFQ % better vs. baseline: Do you start doing one thing at home and get distracted and do something else (unintentionally)?,[1],30% better
same,"Distractibility summed sub-score of CFQ, % better vs. baseline",[1],20% better
same,"False triggering summed sub-score of CFQ, % better vs. baseline",[1],33% better
same,"Forgetfulness summed sub-score of CFQ, % better vs. baseline",[1],27% better
same,"Total CFQ summed sub-score, % better vs. baseline",[1],25% better
same,CFQ score: Do you bump into people?,week 4,0.6 ± 0.8
same,CFQ score: Do you confuse left and right when giving people directions?,week 4,0.7 ± 0.8
same,CFQ score: Do you daydream when you ought to be listening to something?,week 4,1.3 ± 0.9
same,CFQ score: Do you fail to hear people speaking to you when you are doing something?,week 4,1.5 ± 1.1
same,CFQ score: Do you fail to listen to people's names when you are meeting them for the first time?,week 4,1.8 ± 1.2
same,CFQ score: Do you fail to notice signposts on the road?,week 4,0.7 ± 0.7
same,CFQ score: Do you fail to see what you want in a supermarket (although it's there)?,week 4,1.1 ± 1.0
same,CFQ score: Do you find that you drop things?,week 4,1.1 ± 0.7
same,CFQ score: Do you find that you forget appointments?,week 4,0.7 ± 0.8
same,CFQ score: Do you find you accidentally misplace things like placing the fruit in the cupboard and the bowl in the refrigerator?,week 4,0.7 ± 0.9
same,CFQ score: Do you find you can't quite remember something although it's “on the tip of your tongue”?,week 4,2.0 ± 1.0^
same,CFQ score: Do you find you can't think of anything to say?,week 4,0.8 ± 0.8
same,CFQ score: Do you find you forget people's names?,week 4,2.0 ± 0.9
same,CFQ score: Do you find you forget what you came to the store to buy?,week 4,1.0 ± 0.9
same,CFQ score: Do you find you forget whether you've turned off a light or locked the door?,week 4,1.1 ± 0.9
same,CFQ score: Do you find you forget which way to turn on a road you know well but rarely use?,week 4,0.6 ± 0.8
same,CFQ score: Do you find you forget why you went from one place of the house to the other?,week 4,1.4 ± 0.7^
same,CFQ score: Do you find yourself suddenly wondering if you used a word correctly?,week 4,1.0 ± 1.1
same,CFQ score: Do you forget where you put something like a newspaper or a book?,week 4,1.7 ± 0.9^
same,CFQ score: Do you have trouble making up your mind?,week 4,1.5 ± 1.1
same,CFQ score: Do you lose track of paying bills?,week 4,0.9 ± 1.0
same,CFQ score: Do you lose your temper and regret it?,week 4,1.1 ± 0.8
same,CFQ score: Do you read something and find you haven't been thinking about it and must read it again?,week 4,1.5 ± 0.9
same,CFQ score: Do you say something and realize afterwards that it might be taken as an insult?,week 4,1.4 ± 0.9
same,CFQ score: Do you start doing one thing at home and get distracted and do something else (unintentionally)?,week 4,1.9 ± 0.8
same,Distractibility summed sub-score of CFQ,week 4,10 ± 5
same,False triggering summed sub-score of CFQ,week 4,7 ± 4^
same,Forgetfulness summed sub-score of CFQ,week 4,12 ± 5^
same,Total CFQ summed sub-score,week 4,29 ± 14
same,CFQ % better vs. baseline: Do you bump into people?,week 8,29% better
same,CFQ % better vs. baseline: Do you confuse left and right when giving people directions?,week 8,22% better
same,CFQ % better vs. baseline: Do you daydream when you ought to be listening to something?,week 8,33%
same,CFQ % better vs. baseline: Do you fail to hear people speaking to you when you are doing something?,week 8,23% better
same,CFQ % better vs. baseline: Do you fail to listen to people's names when you are meeting them for the first time?,week 8,17% better
same,CFQ % better vs. baseline: Do you fail to notice signposts on the road?,week 8,20% better
same,CFQ % better vs. baseline: Do you fail to see what you want in a supermarket (although it's there)?,week 8,23% better
same,CFQ % better vs. baseline: Do you find that you drop things?,week 8,33% better
same,CFQ % better vs. baseline: Do you find that you forget appointments?,week 8,50% better
same,CFQ % better vs. baseline: Do you find you accidentally misplace things like placing the fruit in the cupboard and the bowl in the refrigerator?,week 8,63%
same,CFQ % better vs. baseline: Do you find you can't quite remember something although it's “on the tip of your tongue”?,week 8,12% better
same,CFQ % better vs. baseline: Do you find you can't think of anything to say?,week 8,27% better
same,CFQ % better vs. baseline: Do you find you forget people's names?,week 8,20% better
same,CFQ % better vs. baseline: Do you find you forget what you came to the store to buy?,week 8,27% better
same,CFQ % better vs. baseline: Do you find you forget whether you've turned off a light or locked the door?,week 8,40%
same,CFQ % better vs. baseline: Do you find you forget which way to turn on a road you know well but rarely use?,week 8,44% better
same,CFQ % better vs. baseline: Do you find you forget why you went from one place of the house to the other?,week 8,39%
same,CFQ % better vs. baseline: Do you find yourself suddenly wondering if you used a word correctly?,week 8,43% better
same,CFQ % better vs. baseline: Do you forget where you put something like a newspaper or a book?,week 8,29%
same,CFQ % better vs. baseline: Do you have trouble making up your mind?,week 8,26% better
same,CFQ % better vs. baseline: Do you lose track of paying bills?,week 8,30% better
same,CFQ % better vs. baseline: Do you lose your temper and regret it?,week 8,33% better
same,CFQ % better vs. baseline: Do you read something and find you haven't been thinking about it and must read it again?,week 8,39%
same,CFQ % better vs. baseline: Do you say something and realize afterwards that it might be taken as an insult?,week 8,14% better
same,CFQ % better vs. baseline: Do you start doing one thing at home and get distracted and do something else (unintentionally)?,week 8,30%
same,"Distractibility summed sub-score of CFQ, % better vs. baseline",week 8,29%
same,"False triggering summed sub-score of CFQ, % better vs. baseline",week 8,36%
same,"Forgetfulness summed sub-score of CFQ, % better vs. baseline",week 8,27%
same,"Total CFQ summed sub-score, % better vs. baseline",week 8,30%
same,CFQ % better vs. baseline: Do you daydream when you ought to be listening to something?,[2],33% better
same,CFQ % better vs. baseline: Do you find you accidentally misplace things like placing the fruit in the cupboard and the bowl in the refrigerator?,[2],63% better
same,CFQ % better vs. baseline: Do you find you forget whether you've turned off a light or locked the door?,[2],40% better
same,CFQ % better vs. baseline: Do you find you forget why you went from one place of the house to the other?,[2],39% better
same,CFQ % better vs. baseline: Do you forget where you put something like a newspaper or a book?,[2],29% better
same,CFQ % better vs. baseline: Do you read something and find you haven't been thinking about it and must read it again?,[2],39% better
same,CFQ % better vs. baseline: Do you start doing one thing at home and get distracted and do something else (unintentionally)?,[2],30% better
same,"Distractibility summed sub-score of CFQ, % better vs. baseline",[2],29% better
same,"False triggering summed sub-score of CFQ, % better vs. baseline",[2],36% better
same,"Forgetfulness summed sub-score of CFQ, % better vs. baseline",[2],27% better
same,"Total CFQ summed sub-score, % better vs. baseline",[2],30% better
same,CFQ score: Do you bump into people?,week 8,0.5 ± 0.6
same,CFQ score: Do you confuse left and right when giving people directions?,week 8,0.7 ± 0.8
same,CFQ score: Do you daydream when you ought to be listening to something?,week 8,1.2 ± 0.9
same,CFQ score: Do you fail to hear people speaking to you when you are doing something?,week 8,1.3 ± 1.1
same,CFQ score: Do you fail to listen to people's names when you are meeting them for the first time?,week 8,1.9 ± 1.1
same,CFQ score: Do you fail to notice signposts on the road?,week 8,0.8 ± 0.7
same,CFQ score: Do you fail to see what you want in a supermarket (although it's there)?,week 8,1.0 ± 0.8
same,CFQ score: Do you find that you drop things?,week 8,1.0 ± 0.7
same,CFQ score: Do you find that you forget appointments?,week 8,0.5 ± 0.5
same,CFQ score: Do you find you accidentally misplace things like placing the fruit in the cupboard and the bowl in the refrigerator?,week 8,0.3 ± 0.5
same,CFQ score: Do you find you can't quite remember something although it's “on the tip of your tongue”?,week 8,2.2 ± 0.8
same,CFQ score: Do you find you can't think of anything to say?,week 8,0.8 ± 0.7
same,CFQ score: Do you find you forget people's names?,week 8,2.0 ± 1.0
same,CFQ score: Do you find you forget what you came to the store to buy?,week 8,1.1 ± 0.9
same,CFQ score: Do you find you forget whether you've turned off a light or locked the door?,week 8,1.2 ± 0.7
same,CFQ score: Do you find you forget which way to turn on a road you know well but rarely use?,week 8,0.5 ± 0.6
same,CFQ score: Do you find you forget why you went from one place of the house to the other?,week 8,1.4 ± 0.8^
same,CFQ score: Do you find yourself suddenly wondering if you used a word correctly?,week 8,0.8 ± 0.9
same,CFQ score: Do you forget where you put something like a newspaper or a book?,week 8,1.5 ± 0.9^
same,CFQ score: Do you have trouble making up your mind?,week 8,1.4 ± 0.9
same,CFQ score: Do you lose track of paying bills?,week 8,0.7 ± 0.9
same,CFQ score: Do you lose your temper and regret it?,week 8,1.0 ± 0.7
same,CFQ score: Do you read something and find you haven't been thinking about it and must read it again?,week 8,1.4 ± 0.8
same,CFQ score: Do you say something and realize afterwards that it might be taken as an insult?,week 8,1.2 ± 0.7
same,CFQ score: Do you start doing one thing at home and get distracted and do something else (unintentionally)?,week 8,1.9 ± 0.7
same,Distractibility summed sub-score of CFQ,week 8,9 ± 4
same,False triggering summed sub-score of CFQ,week 8,7 ± 4^
same,Forgetfulness summed sub-score of CFQ,week 8,12 ± 5^
same,Total CFQ summed sub-score,week 8,27 ± 11
